# Experiments:
# NAMPT = NAMPT (Homo sapiens, UniProt P43490); assay: Time-Resolved Fluorescence Resonance Energy Transfer (TR-FRET) Binding Assay of NAMPT with PRPP; details: 2 nM NAMPT, 2 nM probe, 200 uM PRPP and 2.5 mM ATP, equilibrated 16 hours
# Procedure, shortened: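 Final mix: 2 nM NAMPT, 2 nM probe, 1 nM Tb-anti-His antibody, 200 uM PRPP, 2.5 mM ATP, 2% DMSO in 1× assay buffer. Equilibrated 16 hours before TR-FRET read, allowing possible enzymatic modification of compounds.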
# [1] = target: NAMPT (human, recombinant, C-terminally His-tagged) (Homo sapiens, UniProt P43490); assay: Time-Resolved Fluorescence Resonance Energy Transfer (TR-FRET) Binding Assay of NAMPT; details: 6.8 nM NAMPT, 200 nM probe, equilibrated 3 hours, absence of substrates
# Procedure, shortened: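 Recombinant C-terminally His-tagged human NAMPT (6.8 nM) incubated 3 h at room temperature with 200 nM Oregon Green 488–labelled nicotinamide-competitive probe and 1 nM Tb-anti-His antibody in HEPES pH 7.5, 2% DMSO. TR-FRET ratio Em520/Em495 normalized to controls; IC50 from four-parameter logistic fit.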
# Chain of NAMPT (P43490 whole entry): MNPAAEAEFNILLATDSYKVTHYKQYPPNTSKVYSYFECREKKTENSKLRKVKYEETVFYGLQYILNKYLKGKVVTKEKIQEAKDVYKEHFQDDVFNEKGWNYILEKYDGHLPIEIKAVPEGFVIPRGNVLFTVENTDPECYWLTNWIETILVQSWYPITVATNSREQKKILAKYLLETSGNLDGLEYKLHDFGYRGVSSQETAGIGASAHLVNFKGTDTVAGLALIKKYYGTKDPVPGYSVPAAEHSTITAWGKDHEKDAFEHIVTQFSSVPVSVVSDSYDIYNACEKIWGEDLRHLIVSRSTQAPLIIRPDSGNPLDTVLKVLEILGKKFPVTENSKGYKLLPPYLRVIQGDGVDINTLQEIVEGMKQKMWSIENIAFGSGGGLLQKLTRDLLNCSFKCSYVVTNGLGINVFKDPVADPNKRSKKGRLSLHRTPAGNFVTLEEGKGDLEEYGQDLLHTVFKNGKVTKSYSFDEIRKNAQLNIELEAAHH
# Chain of NAMPT (human, recombinant, C-terminally His-tagged) (P43490 whole entry): as above
Compound,IC50 (NAMPT),IC50 [1]
"O=C(Nc1ccc(OC2CCN(CCC3CC3)CC2)cc1)C1CN(c2cccnc2)C1 [Example 82, N-(4-{[1-(2-cyclopropylethyl)piperidin-4-yl]oxy}phenyl)-1-(pyridin-3-yl)azetidine-3-carboxamide]",0.526 nM,955 nM
"O=C(Nc1ccc(OC2CCN(CC3CCOC3)CC2)cc1)C1CN(c2cccnc2)C1 (stereo not drawn) [Example 83, 1-(pyridin-3-yl)-N-(4-{[1-(tetrahydrofuran-3-ylmethyl)piperidin-4-yl]oxy}phenyl)azetidine-3-carboxamide]",0.503 nM,1210 nM
"CCC(C)(C)CN1CCC(Oc2ccc(NC(=O)C3CN(c4cccnc4)C3)cc2)CC1 [Example 84, N-(4-{[1-(2,2-dimethylbutyl)piperidin-4-yl]oxy}phenyl)-1-(pyridin-3-yl)azetidine-3-carboxamide]",1.81 nM,6070 nM
"CC(C)(O)C(=O)N1CCC(c2ccc(NC(=O)C3CN(c4ccnnc4)C3)cc2)CC1 [Example 85, N-{4-[1-(2-hydroxy-2-methylpropanoyl)piperidin-4-yl]phenyl}-1-(pyridazin-4-yl)azetidine-3-carboxamide]",17 nM,32.2 nM
"COc1ccncc1N1CC(C(=O)Nc2ccc(C3CCN(C(=O)C(C)(C)O)CC3)cc2)C1 [Example 96, N-{4-[1-(2-hydroxy-2-methylpropanoyl)piperidin-4-yl]phenyl}-1-(4-methoxypyridin-3-yl)azetidine-3-carboxamide]",282 nM,115 nM
"CC(C)(O)C(=O)N1CCC(c2ccc(NC(=O)C3CN(c4cnccc4C#N)C3)cc2)CC1 [Example 97, 1-(4-cyanopyridin-3-yl)-N-{4-[1-(2-hydroxy-2-methylpropanoyl)piperidin-4-yl]phenyl}azetidine-3-carboxamide]",131 nM,36.6 nM
"O=C(Nc1ccc(C2CCN(C(=O)CC3C[C@@H]4CC[C@H]3C4)CC2)cc1)C1CN(c2cccnc2)C1 (stereo partly drawn) [Example 100, N-(4-{1-[(1S,4R)-bicyclo[2.2.1]hept-2-ylacetyl]piperidin-4-yl}phenyl)-1-(pyridin-3-yl)azetidine-3-carboxamide]",0.497 nM,30.6 nM
"O=C(Nc1ccc(C2CCN(C(=O)CC3CCCC3)CC2)cc1)C1CN(c2cccnc2)C1 [Example 101, N-{4-[1-(cyclopentylacetyl)piperidin-4-yl]phenyl}-1-(pyridin-3-yl)azetidine-3-carboxamide]",0.486 nM,16.5 nM
"O=C(Nc1ccc(C2CCN(C(=O)CN3CCOCC3)CC2)cc1)C1CN(c2cccnc2)C1 [Example 103, N-{4-[1-(morpholin-4-ylacetyl)piperidin-4-yl]phenyl}-1-(pyridin-3-yl)azetidine-3-carboxamide]",0.493 nM,56.2 nM
"O=C(Nc1ccc(C2CCN(C(=O)c3ccoc3)CC2)cc1)C1CN(c2cccnc2)C1 [Example 104, N-{4-[1-(furan-3-ylcarbonyl)piperidin-4-yl]phenyl}-1-(pyridin-3-yl)azetidine-3-carboxamide]",0.193 nM,1.2 nM
"O=C1CC[C@H](C(=O)N2CCC(c3ccc(NC(=O)C4CN(c5cccnc5)C4)cc3)CC2)N1 [Example 106, N-{4-[1-(5-oxo-D-prolyl)piperidin-4-yl]phenyl}-1-(pyridin-3-yl)azetidine-3-carboxamide]",0.221 nM,160 nM
"O=C(Nc1ccc(C2CCN(C(=O)c3nccs3)CC2)cc1)C1CN(c2cccnc2)C1 [Example 108, 1-(pyridin-3-yl)-N-{4-[1-(1,3-thiazol-2-ylcarbonyl)piperidin-4-yl]phenyl}azetidine-3-carboxamide]",0.176 nM,3.33 nM
"O=C(Nc1ccc(C2CCN(C(=O)c3ccsc3)CC2)cc1)C1CN(c2cccnc2)C1 [Example 109, 1-(pyridin-3-yl)-N-{4-[1-(thiophen-3-ylcarbonyl)piperidin-4-yl]phenyl}azetidine-3-carboxamide]",0.398 nM,5.03 nM
"CN1CCN(CC(=O)N2CCC(c3ccc(NC(=O)C4CN(c5cccnc5)C4)cc3)CC2)CC1 [Example 113, N-(4-{1-[(4-methylpiperazin-1-yl)acetyl]piperidin-4-yl}phenyl)-1-(pyridin-3-yl)azetidine-3-carboxamide]",0.254 nM,60.6 nM

# Other lines, results leading:
IC50 (NAMPT),IC50 [1],Compound
1.13 nM,3720 nM,"CCCN1CCC(Oc2ccc(NC(=O)C3CN(c4cccnc4)C3)cc2)CC1 [Example 81, N-{4-[(1-propylpiperidin-4-yl)oxy]phenyl}-1-(pyridin-3-yl)azetidine-3-carboxamide]"
0.833 nM,1260 nM,"O=C(Nc1ccc(C2CCN(CC3CCCCC3)CC2)cc1)C1CN(c2cccnc2)C1 [Example 86, N-{4-[1-(cyclohexylmethyl)piperidin-4-yl]phenyl}-1-(pyridin-3-yl)azetidine-3-carboxamide]"
1.27 nM,1390 nM,"CC(C)(C)CCN1CCC(c2ccc(NC(=O)C3CN(c4cccnc4)C3)cc2)CC1 [Example 87, N-{4-[1-(3,3-dimethylbutyl)piperidin-4-yl]phenyl}-1-(pyridin-3-yl)azetidine-3-carboxamide]"
0.64 nM,574 nM,"O=C(Nc1ccc(C2CCN(CC3CCCC3)CC2)cc1)C1CN(c2cccnc2)C1 [Example 88, N-{4-[1-(cyclopentylmethyl)piperidin-4-yl]phenyl}-1-(pyridin-3-yl)azetidine-3-carboxamide]"
0.647 nM,2000 nM,"CCC(C)(C)CN1CCC(c2ccc(NC(=O)C3CN(c4cccnc4)C3)cc2)CC1 [Example 89, N-{4-[1-(2,2-dimethylbutyl)piperidin-4-yl]phenyl}-1-(pyridin-3-yl)azetidine-3-carboxamide]"
0.902 nM,1410 nM,"CCCC(C)CN1CCC(c2ccc(NC(=O)C3CN(c4cccnc4)C3)cc2)CC1 (stereo not drawn) [Example 90, N-{4-[1-(2-methylpentyl)piperidin-4-yl]phenyl}-1-(pyridin-3-yl)azetidine-3-carboxamide]"
0.868 nM,992 nM,"CCCCN1CCC(c2ccc(NC(=O)C3CN(c4cccnc4)C3)cc2)CC1 [Example 91, N-[4-(1-butylpiperidin-4-yl)phenyl]-1-(pyridin-3-yl)azetidine-3-carboxamide]"
0.548 nM,784 nM,"CCC(CC)CN1CCC(c2ccc(NC(=O)C3CN(c4cccnc4)C3)cc2)CC1 [Example 92, N-{4-[1-(2-ethylbutyl)piperidin-4-yl]phenyl}-1-(pyridin-3-yl)azetidine-3-carboxamide]"
1.25 nM,1220 nM,"CC(C)CCN1CCC(c2ccc(NC(=O)C3CN(c4cccnc4)C3)cc2)CC1 [Example 93, N-{4-[1-(3-methylbutyl)piperidin-4-yl]phenyl}-1-(pyridin-3-yl)azetidine-3-carboxamide]"
1.03 nM,2270 nM,"CC(C)CN1CCC(c2ccc(NC(=O)C3CN(c4cccnc4)C3)cc2)CC1 [Example 94, N-{4-[1-(2-methylpropyl)piperidin-4-yl]phenyl}-1-(pyridin-3-yl)azetidine-3-carboxamide]"
1.02 nM,1360 nM,"CCCN1CCC(c2ccc(NC(=O)C3CN(c4cccnc4)C3)cc2)CC1 [Example 95, N-[4-(1-propylpiperidin-4-yl)phenyl]-1-(pyridin-3-yl)azetidine-3-carboxamide]"
0.209 nM,13 nM,"CCCCC(=O)N1CCC(c2ccc(NC(=O)C3CN(c4cccnc4)C3)cc2)CC1 [Example 98, N-[4-(1-pentanoylpiperidin-4-yl)phenyl]-1-(pyridin-3-yl)azetidine-3-carboxamide]"
0.169 nM,13.5 nM,"CCC(C)CC(=O)N1CCC(c2ccc(NC(=O)C3CN(c4cccnc4)C3)cc2)CC1 (stereo not drawn) [Example 99, N-{4-[1-(3-methylpentanoyl)piperidin-4-yl]phenyl}-1-(pyridin-3-yl)azetidine-3-carboxamide]"
0.21 nM,8.84 nM,"CC1CC1C(=O)N1CCC(c2ccc(NC(=O)C3CN(c4cccnc4)C3)cc2)CC1 (stereo not drawn) [Example 102, N-(4-{1-[(2-methylcyclopropyl)carbonyl]piperidin-4-yl}phenyl)-1-(pyridin-3-yl)azetidine-3-carboxamide]"
0.244 nM,296 nM,"O=C(Nc1ccc(C2CCN(C(=O)CN3CCCC3)CC2)cc1)C1CN(c2cccnc2)C1 [Example 105, 1-(pyridin-3-yl)-N-{4-[1-(pyrrolidin-1-ylacetyl)piperidin-4-yl]phenyl}azetidine-3-carboxamide]"
0.169 nM,163 nM,"CN(C)CCC(=O)N1CCC(c2ccc(NC(=O)C3CN(c4cccnc4)C3)cc2)CC1 [Example 107, N-{4-[1-(N,N-dimethyl-beta-alanyl)piperidin-4-yl]phenyl}-1-(pyridin-3-yl)azetidine-3-carboxamide]"
0.169 nM,6.63 nM,"CC1(C(=O)N2CCC(c3ccc(NC(=O)C4CN(c5cccnc5)C4)cc3)CC2)CC1 [Example 110, N-(4-{1-[(1-methylcyclopropyl)carbonyl]piperidin-4-yl}phenyl)-1-(pyridin-3-yl)azetidine-3-carboxamide]"
0.199 nM,2.84 nM,"Cc1ccsc1C(=O)N1CCC(c2ccc(NC(=O)C3CN(c4cccnc4)C3)cc2)CC1 [Example 111, N-(4-{1-[(3-methylthiophen-2-yl)carbonyl]piperidin-4-yl}phenyl)-1-(pyridin-3-yl)azetidine-3-carboxamide]"
0.362 nM,40.2 nM,"O=C(Nc1ccc(C2CCN(C(=O)CCC(F)(F)F)CC2)cc1)C1CN(c2cccnc2)C1 [Example 112, 1-(pyridin-3-yl)-N-{4-[1-(4,4,4-trifluorobutanoyl)piperidin-4-yl]phenyl}azetidine-3-carboxamide]"
